Here are results for 21 molecules from ChEMBL document CHEMBL1122478, “Tricyclic triarylethylene antiestrogens: dibenz[b,f]oxepins, dibenzo[b,f]thiepins, dibenzo[a,e]cyclooctenes, and dibenzo[b,f]thiocins” (1983).

A value given as a limit tells only on which side of the number the result lay.

Holding throughout (type): functional
Test [1] is filed under the species Rattus norvegicus. The experiment in a line: Minimum fully effective dose that prevented implantation of eggs in three out of three rats (MFED) (antifertility).
Test [2] relates to Mus musculus. The experiment in a line: Sedative activity measured after ip administration to female mice and checked for their horizontal movement at a dose of 5 mg/Kg.
Test [3] concerns Mus musculus. The experiment in a line: Sedative activity measured after ip administration to female mice and checked for their horizontal movement at a dose of 1 mg/Kg.
For test [4], the system named is Mus musculus. Put plainly: Sedative activity measured after ip administration to female mice and checked for their horizontal movement at a dose of 10 mg/Kg.
The species named for test [5] is Rattus norvegicus. Put plainly: Dose prevented implantation in two out of 3 rats.
For test [6], the species on record is Rattus norvegicus. The experiment in a line: Dose prevented implantation in two out of 3 rats;.
For test [7], the species on record is Rattus norvegicus. Put plainly: Dose prevented implantation in two out of three rats.

As for `C=CCOc1ccc2c(c1)SCc1ccccc1/C(CC)=C\2c1ccccc1`, in test [1], the MFED turned out to be 5 mg/kg.
`C=CCOc1ccc2c(c1)Sc1ccccc1C(CC)=C2c1ccccc1`: the values for the Reduction in movement in test [2] and in test [3] were 76% and 48%, respectively. Further, the MFED in test [1] was greater than 25 mg/kg.
In test [1], `CCC1=C(c2ccc(O)cc2)c2ccc(OCC(O)CO)cc2Sc2ccccc21` (centres undefined) came in with an MFED of 5 mg/kg.
Molecule `CCC1=C(c2ccc(O)cc2)c2ccc(OCCN(C)C)cc2Sc2ccccc21` showed an MFED in test [1] of 0.5 mg/kg. Further, the Reduction in movement in test [4] is 45%.
As to `C=CCOc1ccc2c(c1)Oc1ccccc1C(CC)=C2c1ccc(O)cc1`, the MFED in test [1] is greater than 25 mg/kg.
The same measure, in the same setting: then `C=CCOc1ccc2c(c1)Sc1ccccc1C(CC)=C2c1ccc(O)cc1`, with 5 mg/kg.
Consider `CCC1=C(c2ccc(O)cc2)c2ccc(OCCN(C)C)cc2Oc2ccccc21`, for which the Reduction in movement in test [2] was 70%. In test [1], the MFED turned out to be 10 mg/kg.
Molecule `CCC1=C(c2ccccc2)c2ccc(OCC(O)CO)cc2Oc2ccccc21` (centres undefined) showed an MFED in test [1] of 10 mg/kg.
In test [1], `C=CCOc1ccc2c(c1)Oc1ccccc1C(CC)=C2c1ccccc1` registered an MFED greater than 25 mg/kg.
For `CCC1=C(c2ccccc2)c2ccc(O)cc2Sc2ccccc21`, the Reduction in movement in test [2] came out at 60%; in test [4], 72%; in test [3], 34%. Besides, the MFED in test [1] is greater than 5 mg/kg.
Turning to `CC/C1=C(\c2ccccc2)c2ccc(OCCN(C)C)cc2SCc2ccccc21`, the MFED in test [1] was 0.5 mg/kg.
In turn, `CCC1=C(c2ccc(O)cc2)c2ccc(OCC(O)CO)cc2Oc2ccccc21` (centres undefined) yielded a Reduction in movement in test [2] of 61%. Further, in test [5], the Dose stood at 10 mg/kg. For the same molecule, in test [1], the MFED worked out at 25 mg/kg.
`C=CCOc1ccc2c(c1)SCc1ccccc1/C(CC)=C\2c1ccc(O)cc1` showed a Dose in test [5] of roughly 10 mg/kg. The molecule further registered an MFED in test [1] of 25 mg/kg.
For `CC/C1=C(\c2ccccc2)c2ccc(OCC(O)CO)cc2SCc2ccccc21` (centres undefined), in test [6], the Dose came to 5 mg/kg.
Take `CC/C1=C(\c2ccc(O)cc2)c2ccc(OCCN(C)C)cc2SCc2ccccc21`: in test [2], the Reduction in movement was determined as 61%. In addition, in test [1], the MFED was 0.5 mg/kg.
In turn, `CCC1=C(c2ccccc2)c2ccc(OCCN(C)C)cc2Oc2ccccc21` returned a Dose in test [7] of roughly 10 mg/kg. The molecule also displayed an MFED in test [1] of 25 mg/kg.
Take `CCC1=C(c2ccccc2)c2ccc(OCC(O)CO)cc2Sc2ccccc21` (centres undefined): the Reduction in movement in test [2] was determined as 84%; in test [3], 33%. In test [5], the Dose was roughly 25 mg/kg.
For `CC/C1=C(\c2ccc(O)cc2)c2ccc(OCC(O)CO)cc2SCc2ccccc21` (centres undefined), the Reduction in movement in test [2] is recorded as 62%. Further, the MFED in test [1] stood at 5 mg/kg.
`CCC1=C(c2ccccc2)c2ccc(OCCN(C)C)cc2Sc2ccccc21` displayed a Dose in test [5] of roughly 1 mg/kg. Moreover, the MFED in test [1] was 5 mg/kg. Further, the Reduction in movement in test [4] came to 46%; in test [3] it was 49%.
In test [3], `CN(C)CCCN1c2ccccc2Sc2ccc(Cl)cc21` [CHLORPROMAZINE] displayed a Reduction in movement of 73%.
`CC/C(=C(\c1ccccc1)c1ccc(OCCN(C)C)cc1)c1ccccc1` [TAMOXIFEN] registered an MFED in test [1] of 0.1 mg/kg.
